Data reported in patent publication US8507017B2, “Method for decreasing nicotine and other substance use in humans” (Arizona Health Consulting Group, LLC, priority 2003, dated 2013).

Legend:
[1] = molecular target: T1, (Homo sapiens, UniProt P30926+P43681); assay: whole-cell patch-clamp recording of nicotinic responses, α4α4 nAChR subtype; type: cell-based; settings: THB 0.1 mM; nicotine 1.0 μM; FIG. 6B (2)
T1 construct: expressed in transfected cells; host or cells: SH-EP1 human epithelial cell line
T1 sequence (P43681 27-627): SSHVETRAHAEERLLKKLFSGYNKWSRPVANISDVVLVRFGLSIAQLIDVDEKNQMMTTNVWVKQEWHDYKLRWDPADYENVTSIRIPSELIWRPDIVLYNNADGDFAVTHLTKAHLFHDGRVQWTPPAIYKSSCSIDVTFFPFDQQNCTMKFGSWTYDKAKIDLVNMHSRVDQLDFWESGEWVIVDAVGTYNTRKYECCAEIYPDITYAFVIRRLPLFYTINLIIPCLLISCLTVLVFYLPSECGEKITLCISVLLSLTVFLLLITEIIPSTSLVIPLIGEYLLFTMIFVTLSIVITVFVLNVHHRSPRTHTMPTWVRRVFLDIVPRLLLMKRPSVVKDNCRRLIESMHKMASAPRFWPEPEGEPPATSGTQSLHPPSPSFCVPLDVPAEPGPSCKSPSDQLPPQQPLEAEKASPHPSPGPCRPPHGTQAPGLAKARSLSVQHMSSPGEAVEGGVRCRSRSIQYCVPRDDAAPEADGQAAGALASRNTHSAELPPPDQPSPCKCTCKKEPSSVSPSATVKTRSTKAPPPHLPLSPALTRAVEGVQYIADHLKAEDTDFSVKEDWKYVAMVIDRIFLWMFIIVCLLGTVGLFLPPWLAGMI
T1 sequence (P30926 22-498): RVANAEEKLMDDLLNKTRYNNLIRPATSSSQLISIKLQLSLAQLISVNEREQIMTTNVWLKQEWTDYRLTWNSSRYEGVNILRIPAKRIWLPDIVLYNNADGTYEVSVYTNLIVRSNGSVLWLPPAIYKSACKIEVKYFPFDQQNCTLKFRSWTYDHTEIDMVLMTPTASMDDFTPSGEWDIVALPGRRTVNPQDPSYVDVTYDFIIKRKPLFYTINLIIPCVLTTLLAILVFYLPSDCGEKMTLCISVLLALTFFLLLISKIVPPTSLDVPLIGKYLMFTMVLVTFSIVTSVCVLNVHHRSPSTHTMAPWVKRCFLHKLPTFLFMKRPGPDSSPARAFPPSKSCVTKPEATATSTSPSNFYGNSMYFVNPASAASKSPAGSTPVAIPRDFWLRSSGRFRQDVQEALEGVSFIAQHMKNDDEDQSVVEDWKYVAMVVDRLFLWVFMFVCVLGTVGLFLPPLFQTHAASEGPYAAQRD
Excerpt: (§1) In FIGS. 6-9, whole-cell patch-clamp recording techniques in voltage-clamp mode were used to detect changes in current. Conventional whole-cell current recording coupled with techniques for fast application and removal of agonist (9 channel multi-barrel pipette), were applied in this study. Briefly, cells plated on poly-lysine-coated 35-mm culture dishes were placed on the stage of an inverted microscope (Olympus iX7, Lake Success, N.Y.) and continuously superfused with standard external solution (2 ml/min). Glass microelectrodes (3-5 MΩ resistance between pipette and extracellular solutions) were used to form tight seals (>1 GΩ) on the cell surface until suction was applied to convert to conventional whole-cell recording.
(§2) Both pipette and whole current capacitance were minimized and the series resistance was routinely compensated to 80%. The access resistance before series resistance compensation was between 10-20 MΩ. Data acquisition and analyses were done using Pclamp8 (Axon Instruments), and results were plotted using Origin 5.0 (Microcal, North Hampton, Mass.).
(§3) Data usually were fit over the 10-90% period from inward current peak until agonist exposure was terminated (5-10 sec). The experimental data are presented as means±standard errors, and comparisons of different conditions were analyzed for statistical significance using the Student's t-tests. […]

α7-nAChRs = molecular target: T2, α7-nAChRs (Homo sapiens, UniProt P36544); assay: whole-cell patch-clamp recording of nicotinic responses, α7 nAChR subtype; type: cell-based; settings: THB 0.1 mM; nicotine 1.0 μM; FIG. 6B (3)
T2 construct: expressed in transfected cells; host or cells: SH-EP1 human epithelial cell line (stated generally, not specifically for α7)
T2 sequence (P36544 23-502): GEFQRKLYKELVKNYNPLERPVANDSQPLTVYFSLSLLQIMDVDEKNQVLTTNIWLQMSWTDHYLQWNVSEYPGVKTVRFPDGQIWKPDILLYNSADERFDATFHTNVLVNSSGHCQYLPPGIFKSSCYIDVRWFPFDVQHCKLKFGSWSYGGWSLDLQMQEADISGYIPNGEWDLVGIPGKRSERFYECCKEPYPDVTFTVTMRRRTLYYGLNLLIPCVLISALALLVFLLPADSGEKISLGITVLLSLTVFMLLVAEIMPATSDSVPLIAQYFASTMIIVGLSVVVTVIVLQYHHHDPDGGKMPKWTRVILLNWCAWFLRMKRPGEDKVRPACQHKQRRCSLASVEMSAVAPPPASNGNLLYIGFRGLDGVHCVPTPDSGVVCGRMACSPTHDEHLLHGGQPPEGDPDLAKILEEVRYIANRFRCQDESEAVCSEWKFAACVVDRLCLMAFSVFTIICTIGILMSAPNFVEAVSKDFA
Excerpt: as §1, §2, §3

α4β2-nAChR = molecular target: T3, α4β2-nAChR (Homo sapiens, UniProt P17787+P43681); assay: whole-cell patch-clamp recording of nicotine-induced currents, α4β2-nAChR expressed in SH-EP1 cells; type: cell-based; settings: for effect on α4β2-nAChR mediated currents (peak current response, steady-state component): 0.1 mM of each Magnoliidae compound, FIG. 6A
T3 construct: expressed in transfected cells; host or cells: SH-EP1 human epithelial cell line (nAChR-null)
T3 sequence (P43681 29-627 limits assumed): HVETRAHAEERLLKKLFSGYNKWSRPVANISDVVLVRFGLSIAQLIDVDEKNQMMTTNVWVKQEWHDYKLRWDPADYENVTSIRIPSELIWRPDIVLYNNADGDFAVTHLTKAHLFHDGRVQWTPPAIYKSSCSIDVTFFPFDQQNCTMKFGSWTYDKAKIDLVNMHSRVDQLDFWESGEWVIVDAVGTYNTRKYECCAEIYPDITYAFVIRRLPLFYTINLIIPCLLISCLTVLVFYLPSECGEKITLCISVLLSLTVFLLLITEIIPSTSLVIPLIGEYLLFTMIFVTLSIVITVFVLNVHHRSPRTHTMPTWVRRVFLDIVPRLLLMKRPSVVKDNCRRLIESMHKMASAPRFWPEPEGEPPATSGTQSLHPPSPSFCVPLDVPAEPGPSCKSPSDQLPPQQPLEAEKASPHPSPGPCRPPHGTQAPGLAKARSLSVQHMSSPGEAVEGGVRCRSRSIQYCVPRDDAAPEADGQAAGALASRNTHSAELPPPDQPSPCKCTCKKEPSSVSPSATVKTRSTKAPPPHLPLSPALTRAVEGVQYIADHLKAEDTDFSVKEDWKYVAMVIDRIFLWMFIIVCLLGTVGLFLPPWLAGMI
T3 sequence (P17787 26-502): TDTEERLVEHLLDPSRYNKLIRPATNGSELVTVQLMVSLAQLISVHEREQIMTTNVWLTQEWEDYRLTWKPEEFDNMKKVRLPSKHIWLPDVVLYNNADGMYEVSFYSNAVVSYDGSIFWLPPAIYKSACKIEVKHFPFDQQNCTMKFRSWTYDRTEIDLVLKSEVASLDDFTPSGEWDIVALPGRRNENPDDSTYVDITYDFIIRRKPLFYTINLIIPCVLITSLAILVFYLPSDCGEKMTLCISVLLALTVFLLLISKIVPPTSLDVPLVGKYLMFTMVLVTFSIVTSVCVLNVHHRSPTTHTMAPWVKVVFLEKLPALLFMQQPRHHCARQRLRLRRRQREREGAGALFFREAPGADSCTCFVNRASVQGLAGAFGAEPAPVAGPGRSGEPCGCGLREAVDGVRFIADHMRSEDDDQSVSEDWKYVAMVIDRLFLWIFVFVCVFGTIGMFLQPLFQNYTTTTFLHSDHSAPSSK
Excerpt: as §1, §2
Data usually were fit over the 10-90% period from inward current peak until agonist exposure was terminated (5-10 sec). The experimental data are presented as means±standard errors, and comparisons of different conditions were analyzed for statistical significance using the Student's t-tests. All experiments were performed at room temperature (22±1° C.). A pipette electrode solution comprising TrisPO4dibasic 110 milli-Molar (mM), Trisbase 28 mM, Ethylenediaminetetraacetate (EDTA) 11 mM, Magnesium Chloride (MgCl2) 2 mM, Calcium Chloride (CaCl2) 0.5 mM, and Sodium-Adenosine Triphosphate (Na-ATP) 4 mM, resulting in a pH of 7.3, was used.

[2] = system: D1-type and D2-type DA receptor; settings: cited from earlier work
D1 receptors = molecular target: T4, D1 receptors (Rattus norvegicus, UniProt P18901); settings: rats with unilateral nigral lesion (DA receptor super sensitivity in striatum); cited from earlier work
T4 construct: host or cells: rats with unilateral nigral lesion, in vivo (striatum)
T4 sequence (P18901 whole entry): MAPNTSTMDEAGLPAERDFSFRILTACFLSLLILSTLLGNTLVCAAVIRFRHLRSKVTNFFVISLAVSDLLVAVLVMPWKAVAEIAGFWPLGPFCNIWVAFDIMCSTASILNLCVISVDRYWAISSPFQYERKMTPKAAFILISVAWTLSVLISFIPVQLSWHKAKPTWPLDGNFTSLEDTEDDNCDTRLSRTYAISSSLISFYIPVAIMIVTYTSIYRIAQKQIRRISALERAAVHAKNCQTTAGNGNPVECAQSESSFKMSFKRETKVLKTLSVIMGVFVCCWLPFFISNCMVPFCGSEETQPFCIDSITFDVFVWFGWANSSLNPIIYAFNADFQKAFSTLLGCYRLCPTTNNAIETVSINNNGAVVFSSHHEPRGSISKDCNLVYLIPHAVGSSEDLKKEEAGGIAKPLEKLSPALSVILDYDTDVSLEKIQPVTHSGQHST

D2 receptor = molecular target: T5, D2 receptor (Rattus norvegicus, UniProt P61169); settings: cited from earlier work
T5 construct: host or cells: normal rats, in vivo
T5 sequence (P61169 whole entry): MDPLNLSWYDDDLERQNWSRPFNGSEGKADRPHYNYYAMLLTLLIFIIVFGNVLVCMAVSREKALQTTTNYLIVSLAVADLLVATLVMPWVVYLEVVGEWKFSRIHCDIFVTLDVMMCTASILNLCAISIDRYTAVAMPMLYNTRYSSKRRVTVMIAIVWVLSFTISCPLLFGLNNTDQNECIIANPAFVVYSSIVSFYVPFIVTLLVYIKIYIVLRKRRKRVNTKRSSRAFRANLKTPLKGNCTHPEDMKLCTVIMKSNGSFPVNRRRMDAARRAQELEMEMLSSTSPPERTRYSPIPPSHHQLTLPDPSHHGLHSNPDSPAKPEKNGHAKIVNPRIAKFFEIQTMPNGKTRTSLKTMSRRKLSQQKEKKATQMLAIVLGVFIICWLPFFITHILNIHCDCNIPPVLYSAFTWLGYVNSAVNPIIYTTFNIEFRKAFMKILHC

In the case of `COc1ccc2c(c1OC)CN1CCc3cc4c(cc3C1C2)OCO4` (stereo not drawn) [THB, Tetrahydroberberine], the “effect on nicotinic response mediated by α4α4 subtype” value [1] is reported as “inhibition of each nAChR subtype function”, the “effect on nicotinic response mediated by α7 subtype” value (α7-nAChRs) is reported as “inhibitory effect occurs more predominantly in α7-nAChRs” and the “effect on α4β2-nAChR mediated currents (peak current response, steady-state component)” value (“effect on α4β2-nAChR mediated currents” below) (α4β2-nAChR) is reported as “inhibition of nAChR function”. For the same molecule, the “acute desensitization of nicotine-induced currents” value (α4β2-nAChR; THB 30 μM, holding potentials −40 mV and −80 mV, FIG. 9A-9B) was “accelerates acute desensitization”, the “effect on nicotinic response mediated by α4β2 subtype” value (α4β2-nAChR; THB 0.1 mM, nicotine 1.0 μM, FIG. 6B (1)) was “inhibition of each nAChR subtype function” and the “effect on peak (Ip) and steady-state (Is) components of nicotinic responses at different THB concentrations” value (α4β2-nAChR; THB 1.0, 10, 100 μM, nicotine 1.0 μM, FIG. 7A-7C) was “concentration-dependent inhibition”. For the same molecule, the “voltage dependence of suppression of nicotinic response” value (α4β2-nAChR; depending on holding potential VH) was “suppressed nicotinic response depending on VH” and the “effect on D1-type and D2-type DA receptor binding” value [2] was “equipotent effect”.

For `COc1cc2c(cc1O)[C@@H]1Cc3ccc(O)c(OC)c3CN1CC2` [l-SPD, l-Stepholidine], the “DA receptor characteristics in rats with unilateral nigral lesion” value (D1 receptors) is given as “acts on D1 receptors as an agonist”, the “DA receptor characteristics in normal rats” value (D2 receptor) is given as “characteristics of D2 receptor antagonist” and the “effect on α4β2-nAChR mediated currents” value (α4β2-nAChR) is given as “inhibition of nAChR function”.

For `COc1cc2c(cc1OC)[C@@H]1Cc3ccc(OC)c(OC)c3CN1CC2` [l-THP, l-Tetrahydropalmatine], the “effect on α4β2-nAChR mediated currents” value (α4β2-nAChR) was “inhibition of nAChR function”.
